Structures are written as SMILES. Several values for one entry are separate records, joined by “and”; a condition that tells them apart may be missing. Identical values can stand only once. Entries after “also recorded” stand apart in the source; their conditions may differ.

One data set has as its target T1, trypsin (Sus scrofa, UniProt P00761).
T1 construct: purchased Sigma-Aldrich
Briefly: Deacetylation of 3/15ADON by trypsin. It is filed as in vitro ADME, porcine. The settings on record: trypsin 0.35 mg/mL, PBS pH 7.4, 37 °C, substrate 100 μM. The method, then: (§1) Stock solutions of DON, 3ADON and 15ADON at 2 mg/mL were prepared in absolute ethanol and stored at −20 °C. For deacetylation assay, 3- or 15ADON were incubated with cells, explants, bacteria or digestive enzymes after being diluted in PBS^++ at a final concentration of 100 μM. PBS^++ solution containing only ethanol (at 1.5% final concentration) or DON (at 100 μM) were used in parallel as negative and positive control, respectively. For cells and explants, deacetylation assay take place in 6-well plates, wells being filled with 2 mL of PBS^++ containing either ethanol, DON, 3- or 15ADON. For fecal bacteria and digestive enzyme assay, deacetylation assay was conducted in 2 mL Eppendorf tubes filled with 1.5 mL of PBS^++ containing either ethanol, DON, 3- or 15ADON. In vitro intestinal digestion by luminal enzymes was performed using porcine enzymes from Sigma-Aldrich and physiological conditions. […] In all cases, aliquots of the reaction solution were collected immediately (i.e., “time zero” sample) or after the indicated time period at 37 °C and analyzed by HPLC. […]
(§2) Deacetylation was monitoring both in term of disappearance of 3- or 15ADON and formation of DON. […] Quantification was based on calibration with the corresponding standard using Millinium Software (Waters, Saint Quentin Falavier, France).

A further data set deals with T2, pancreatic lipase (Sus scrofa, UniProt P00591).
T2 construct: purchased Sigma-Aldrich
T2 sequence (P00591 whole entry): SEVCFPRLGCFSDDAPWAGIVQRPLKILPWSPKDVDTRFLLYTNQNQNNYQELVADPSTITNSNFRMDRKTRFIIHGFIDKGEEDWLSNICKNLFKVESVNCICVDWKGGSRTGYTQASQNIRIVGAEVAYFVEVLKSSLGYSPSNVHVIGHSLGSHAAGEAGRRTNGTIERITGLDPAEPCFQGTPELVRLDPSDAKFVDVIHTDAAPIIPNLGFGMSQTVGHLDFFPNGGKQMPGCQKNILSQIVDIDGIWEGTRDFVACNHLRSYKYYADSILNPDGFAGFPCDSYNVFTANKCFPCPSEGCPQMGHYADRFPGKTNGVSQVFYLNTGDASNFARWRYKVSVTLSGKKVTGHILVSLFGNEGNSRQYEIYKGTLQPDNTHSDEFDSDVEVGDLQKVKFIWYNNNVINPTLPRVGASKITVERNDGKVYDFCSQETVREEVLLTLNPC
Put plainly: Deacetylation of 3/15ADON by pancreatic lipase. Format: in vitro ADME, porcine. The settings on record: lipase 0.75 mg/mL, PBS pH 7.4, 37 °C, substrate 100 μM. As for the experimental part:
as §1, §2

Data set [1] is described as follows: Deacetylation of 3/15ADON by liver S9 fraction. It is filed as in vitro ADME, human. As for the experimental part:
Stock solutions of DON, 3ADON and 15ADON at 2 mg/mL were prepared in absolute ethanol and stored at −20 °C. For deacetylation assay, 3- or 15ADON were incubated with cells, explants, bacteria or digestive enzymes after being diluted in PBS^++ at a final concentration of 100 μM. PBS^++ solution containing only ethanol (at 1.5% final concentration) or DON (at 100 μM) were used in parallel as negative and positive control, respectively. For cells and explants, deacetylation assay take place in 6-well plates, wells being filled with 2 mL of PBS^++ containing either ethanol, DON, 3- or 15ADON. For fecal bacteria and digestive enzyme assay, deacetylation assay was conducted in 2 mL Eppendorf tubes filled with 1.5 mL of PBS^++ containing either ethanol, DON, 3- or 15ADON. In vitro intestinal digestion by luminal enzymes was performed using porcine enzymes from Sigma-Aldrich and physiological conditions. Briefly, 3- or 15ADON were incubated with pepsin (at 1.6 mg/mL corresponding to 900 U/mL), trypsin (at 0.35 mg/mL corresponding to 6000 U/mL), pancreatic lipase (at 0.75 mg/mL corresponding to 18 U/mL) or pancreatin (at 1.23 mg/mL, lipase activity >10 U/mL, protease activity >100 U/mL, amylase activity >100 U/mL). Except for pepsin for which the digestion was conducted in HCl solution at 10 mM (pH 2.3), in vitro digestion was performed in PBS^++ (pH 7.4). Finally, deacetylation assay was also performed with commercial pooled S9 fractions from human liver, small intestine and kidneys as well as with pure recombinant human CES1 and CES2. S9 fractions and CES1/2 were used at 0.1 mg/mL and 5 μg/mL (corresponding to CES activity >20 U/mL), respectively. In all cases, aliquots of the reaction solution were collected immediately (i.e., “time zero” sample) or after the indicated time period at 37 °C and analyzed by HPLC. […] In all cases, the experiments were conducted in triplicate (n = 3).
Deacetylation was monitoring both in term of disappearance of 3- or 15ADON and formation of DON. Measurement of DON, 3ADON and 15ADON concentrations was performed by reversed-phase HPLC using Waters Alliance System equipped with a Waters 2690 XE separation module and a Waters 996 photodiode array detector (Waters, Saint Quentin Falavier, France). The separation was achieved by mean of a LiChroCart column (125 mm × 4 mm) packed with 5 μm RP-18 Purospher gel (Merck, Darmstadt, Germany) and equipped with a LiChroCart precolumn (4 mm × 4 mm) packed with the same material (Merck). The precolumn and column were placed in room temperature. The elution procedure was carried out at 0.7 mL·min^−1 by a methanol–water solvent, using the following conditions: 40% methanol during 2 min followed by an increase in methanol to 50% at 2.1 min. The detection wavelength was set at 237 nm allowing the best signal/baseline ratio for simultaneous detection of the three DON forms in the incubation mediums. Under these conditions, DON and 3/15ADON were clearly separated, the retention time being around 2.7 min and 5.7 min, for DON and 3/15ADON, respectively (Figure 9). Quantification was based on calibration with the corresponding standard using Millinium Software (Waters, Saint Quentin Falavier, France).

Data set [2] deals with secreted digestive enzymes and fecal bacteria. Briefly: Deacetylation of 3/15ADON by secreted digestive enzymes and fecal bacteria (taken together). It is filed as in vitro ADME. The settings on record: digestive enzymes plus fecal bacteria. As for the experimental part:
The whole procedure involving fecal bacteria (including the use of fecal bacteria for the deacetylation assay) was performed in an anaerobic cabinet (Coy Laboratory Products, Grass Lake, MI, USA). Human fecal bacteria were isolated from three volunteers (men) working in the department, 40–50 years of age. Stools were collected fresh in a sterile container and were immediately introduced into the anaerobic cabinet. Feces samples were taken by pushing a cut-off disposal 1 mL pipette tip into the inner part of the stools. Samples were then mechanically suspended in 9 mL of degassed PBS^++. Homogenates were allowed to decant for ten minutes to eliminate insoluble matter, and supernatants (1 mL aliquots) were transferred to sterile Eppendorf tubes and used for deacetylation assay.
Stock solutions of DON, 3ADON and 15ADON at 2 mg/mL were prepared in absolute ethanol and stored at −20 °C. For deacetylation assay, 3- or 15ADON were incubated with cells, explants, bacteria or digestive enzymes after being diluted in PBS^++ at a final concentration of 100 μM. PBS^++ solution containing only ethanol (at 1.5% final concentration) or DON (at 100 μM) were used in parallel as negative and positive control, respectively. […] In all cases, aliquots of the reaction solution were collected immediately (i.e., “time zero” sample) or after the indicated time period at 37 °C and analyzed by HPLC. […]

The next data set has as its target T3, recombinant human CES2 (Homo sapiens, UniProt O00748).
T3 sequence (O00748 27-559): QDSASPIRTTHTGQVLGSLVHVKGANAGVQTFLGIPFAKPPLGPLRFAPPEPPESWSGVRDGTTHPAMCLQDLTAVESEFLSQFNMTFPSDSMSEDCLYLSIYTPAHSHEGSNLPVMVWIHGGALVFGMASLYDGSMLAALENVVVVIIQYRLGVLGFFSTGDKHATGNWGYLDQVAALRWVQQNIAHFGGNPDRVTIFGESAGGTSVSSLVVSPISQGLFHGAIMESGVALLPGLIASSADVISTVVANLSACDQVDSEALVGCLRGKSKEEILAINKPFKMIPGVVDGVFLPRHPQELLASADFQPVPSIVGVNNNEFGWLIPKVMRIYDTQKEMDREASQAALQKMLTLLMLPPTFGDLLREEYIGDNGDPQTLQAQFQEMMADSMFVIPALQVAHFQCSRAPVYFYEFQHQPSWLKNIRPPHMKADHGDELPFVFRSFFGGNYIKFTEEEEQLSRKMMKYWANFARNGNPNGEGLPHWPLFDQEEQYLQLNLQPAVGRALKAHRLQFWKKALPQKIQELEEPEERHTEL
Briefly: Deacetylation of 3/15ADON by recombinant CES2. It is filed as in vitro ADME. More on the design: purchased R&D Systems. To be noted: 5 μg/mL CES2, up to 24 h, data not shown. The method, then: as §1, §2

Where [3] appears, read: S9 Liver + Benzil 100 μM (Table 1).
[4] abbreviates: S9 Liver, without benzil (Table 1).
[5] abbreviates: S9 liver 0.1 mg/mL, 37 °C, substrate 100 μM (Table 3).

T1 sequence (P00761 9-231): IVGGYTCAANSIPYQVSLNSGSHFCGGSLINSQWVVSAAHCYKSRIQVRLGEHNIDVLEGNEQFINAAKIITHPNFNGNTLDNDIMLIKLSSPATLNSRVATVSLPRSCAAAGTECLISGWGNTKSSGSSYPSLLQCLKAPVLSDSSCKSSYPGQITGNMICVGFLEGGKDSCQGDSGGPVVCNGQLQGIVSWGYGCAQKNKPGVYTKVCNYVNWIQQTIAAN

For the compound `CC(=O)O[C@@H]1C[C@]2(C)[C@@]3(CO)[C@H](O)C(=O)C(C)=C[C@H]3O[C@H]1[C@@]21CO1` [3ADON, 3-acetyldeoxynivalenol], the “Disappearance of 3/15ADON, specific activity” value is 57 ± 19 pmol/min/mg on trypsin; 48 ± 21 pmol/min/mg at pancreatic lipase; 1583 ± 39 pmol/min/mg in data set [1] (setting [3]); 1729 ± 27 pmol/min/mg in data set [1] (setting [4]); 1791 pmol/min/mg and 1791 ± 29 pmol/min/mg in data set [1] (setting [5]). Also, the “Contribution to total deacetylation: intestinal luminal events” value in data set [2] amounted to 16%. Further, the “Deacetylation activity of CES2 on 3/15ADON” value on recombinant human CES2 is on record as “failed at observing any deacetylation activity; also recorded: unable to cause the deacetylation”.

Consider `CC(=O)OC[C@]12[C@H](O)C(=O)C(C)=C[C@H]1O[C@@H]1[C@H](O)C[C@@]2(C)[C@]12CO2` [15ADON, 15-acetyldeoxynivalenol], for which the “Disappearance of 3/15ADON, specific activity” value on trypsin was 94 ± 62 pmol/min/mg; at pancreatic lipase, 42 ± 18 pmol/min/mg; in data set [1] (setting [3]), 125 ± 15 pmol/min/mg; in data set [1] (setting [4]) it was 166 ± 3.5 pmol/min/mg; in data set [1] (setting [5]), 208 pmol/min/mg and 208 ± 41 pmol/min/mg. Further, the “Contribution to total deacetylation: intestinal luminal events” value in data set [2] is listed as 34%. Also, the “Deacetylation activity of CES2 on 3/15ADON” value on recombinant human CES2 was “failed at observing any deacetylation activity; also recorded: unable to cause the deacetylation”.

For the origin of these results see article PMC4999848 (Toxins, 2016).
